# Test results: US20100317515A1, “Azolylmethyloxiranes, use Thereof and Agents Containing the Same” (priority 2007, published 2010)
# Like-named read-outs stand apart in the source and are kept apart here.
# Tests used:
# Phakopsora pachyrhizi = assay: Curative activity against soybean rust caused by Phakopsora pachyrhizi (Phakpa K1); format: in vivo, Phakopsora pachyrhizi on soybean; conditions: curative application, untreated 90%
# Protocol: (§1) The active compounds were prepared separately or jointly as a stock solution comprising 25 mg of active compound which was made up to 10 ml using a mixture of acetone and/or DMSO and the emulsifier Uniperol® EL (wetting agent having emulsifying and dispersing action based on ethoxylated alkylphenols) in a volume ratio of solvent/emulsifier of 99:1. The mixture was then made up to 100 ml with water. This stock solution was diluted with the solvent/emulsifier/water mixture described to give the concentration of active compounds stated below. Alternatively, the active compounds were used as a commercial finished formulation and diluted with water to the concentration of active compounds stated.
# Curative Activity Against Soybean Rust Caused by Phakopsora pachyrhizi (Phakpa K1)
# Leaves of potted soybean seedlings were inoculated with a spore suspension of soybean rust (Phakopsora pachyrhizi). The pots were then placed in a chamber with high atmospheric humidity (90 to 95%) and at 23 to 27° C. for 24 hours. During this time, the spores germinated and the germ tubes penetrated into the leaf tissue. The infected plants were then sprayed to runoff point with the active compound solution described above at the active compound concentration stated below. After the spray coating had dried on, the test plants were cultivated in a greenhouse at temperatures between 23 and 27° C. and 60 to 80% relative atmospheric humidity for 14 days. The extent of the rust fungus development on the leaves was then determined visually in % infection.
# Leptosphaeria nodorum = assay: Activity against the leaf and glume blotch pathogen Leptosphaeria nodorum in the microtiter test (Leptno); format: cell-based
# Puccinia recondita = assay: Protective activity against Puccinia recondita on wheat (brown rust of wheat) (Puccrt P1); format: in vivo
# Botrytis cinerea = assay: Activity against gray mold on bell pepper leaves caused by Botrytis cinerea, 1 day protective application (Botrci P1); format: in vivo; conditions: untreated 90%
# Protocol: as §1
# Activity Against Gray Mold on Bell Pepper Leaves Caused by Botrytis cinerea, 1 Day Protective Application (Botrci P1)
# Bell pepper seedlings were, after 2-3 leaves were well developed, sprayed to runoff point with an aqueous suspension having the active compound concentration stated below. The next day, the treated plants were inoculated with a spore suspension of Botrytis cinerea in a 2% strength biomalt solution. The test plants were then placed in a dark climatized chamber at 22 to 24° C. and high atmospheric humidity. After 5 days, the extent of the fungal infection on the leaves could be determined visually in %.
# Pyricularia oryzae = format: cell-based
# Septoria tritici = assay: Activity against the Septoria leaf spot pathogen Septoria tritici in the microtiter test (Septtr); format: cell-based
# Alternaria solani = assay: Activity against the early blight pathogen Alternaria solani in the microtiter test (Alteso); format: cell-based; conditions: day 7, relative to active compound-free control (100%)
# [1] = 31 ppm, microtiter test, day 7, relative to active compound-free control (100%)
# [2] = 31 ppm, microtiter test, comparative experiments
compound,measurement,setting,value
"CSc1ncnn1C[C@]1(c2ccc(F)c(F)c2)O[C@@H]1c1ccccc1C(F)(F)F (relative stereo) [Example 9, 1-[rel-(2S,3R)-2-(3,4-difluorophenyl)-3-(2-(trifluoromethyl)phenyl)oxiran-2-ylmethyl]-5-(methylthio)-1H-1,2,4-triazole]",Infection in % at 600 ppm for Phakpa K1,Phakopsora pachyrhizi,0%
"Fc1ccc([C@@]2(Cn3ncnc3[S-])O[C@@H]2c2ccccc2Cl)c(F)c1.[Na+] (relative stereo) [Example 16, sodium rel-(2S,3R)-2-[3-(2-chlorophenyl)-2-(2,4-difluorophenyl)oxiranylmethyl]-2H-[1,2,4]triazole-3-thiolate]",Growth in % at 31 ppm for Leptno,Leptosphaeria nodorum; [1],4%
"CSc1ncnn1C[C@]1(c2ccc(F)cc2F)O[C@@H]1c1ccccc1F (relative stereo) [Example 8, 1-[rel-(2S,3R)-2-(2,4-difluorophenyl)-3-(2-fluorophenyl)oxiran-2-ylmethyl]-5-(methylthio)-1H-1,2,4-triazole]",Infection in % at 600 ppm for Phakpa K1,Phakopsora pachyrhizi,1%
"Fc1ccc([C@@]2(Cn3nc[nH]c3=S)O[C@@H]2c2ccccc2Cl)cc1F (relative stereo) [Example 3, 1-[rel-(2S,3R)-3-(2-chlorophenyl)-2-(3,4-difluorophenyl)oxiran-2-ylmethyl]-1H-1,2,4-triazole-5(4-H)-thione]",Infection in % at 600 ppm for Puccrt P1,Puccinia recondita; in vivo,0%
same,Growth in % at 31 ppm for Leptno,Leptosphaeria nodorum,60%
"CC(=O)Sc1ncnn1C[C@]1(c2ccc(F)cc2F)O[C@@H]1c1ccccc1Cl (relative stereo) [Example 14, S-{2-[3-(2-chlorophenyl)-2-(2,4-difluorophenyl)oxiranylmethyl]-2H-[1,2,4]triazole-3-yl} rel-(2S,3R)thio acetate]",Infection in % at 600 ppm for Puccrt P1,Puccinia recondita; in vivo,0%
same,Infection in % at 600 ppm for Botrci P1,Botrytis cinerea,3%
"Fc1ccc([C@@]2(Cn3nc[nH]c3=S)O[C@@H]2c2ccccc2F)c(F)c1 (relative stereo) [Example 4, 1-[rel-(2S,3R)-2-(2,4-difluorophenyl)-3-(2-fluorophenyl)oxiran-2-ylmethyl]-1H-1,2,4-triazole-5(4H)-thione]",Growth in % at 31 ppm for Pyrior,Pyricularia oryzae; [2],7%
same,Growth in % at 31 ppm for Pyrior,Pyricularia oryzae; [1],7%
"Fc1ccc([C@]2(Cn3cnc(S)n3)O[C@H]2c2ccccc2Cl)c(F)c1 (relative stereo) [Example 1, 1-[rel-(2R,3S)-3-(2-chlorophenyl)-2-(2,4-difluorophenyl)oxiranylmethyl]-1H-[1,2,4]triazole-3-thiol]",Infection in % at 600 ppm for Puccrt P1,"Puccinia recondita; 600 ppm, protective spray 1 day before inoculation, wheat, untreated 90%",0%
same,Infection in % at 600 ppm for Botrci P1,Botrytis cinerea,7%
"Fc1ccc([C@@]2(Cn3ncnc3S)O[C@@H]2c2ccccc2F)cc1 [WO9638440, p. 9 (2nd compound)]",Growth in % at 31 ppm for Pyrior,Pyricularia oryzae; [2],30%
"CCOP(=S)(OCC)Sc1ncnn1C[C@]1(c2ccc(F)cc2F)O[C@@H]1c1ccccc1Cl (relative stereo) [Example 13, S-1-[rel-(2S,3R)-3-(2-chlorophenyl)-2-(2,4-difluorophenyl)oxiran-2-ylmethyl]-1H-1,2,4-triazol-5-yl O,O-diethyl phosphorodithioate]",Growth in % at 31 ppm for Septtr,Septoria tritici,4%
"Fc1ccc([C@@]2(Cn3nc[nH]c3=S)O[C@@H]2c2ccccc2Cl)cc1Br [WO9638440, p. 7 (2nd compound)]",Growth in % at 31 ppm for Leptno,Leptosphaeria nodorum; [2],100%
"CSc1ncnn1C[C@]1(c2ccc(F)cc2F)O[C@@H]1c1ccccc1Cl (relative stereo) [Example 10, 1-[rel-(2S,3R)-3-(2-chlorophenyl)-2-(2,4-difluorophenyl)oxiran-2-ylmethyl]-5-(methylthio)-1H-1,2,4-triazole]",Infection in % at 600 ppm for Phakpa K1,Phakopsora pachyrhizi,0%
"Fc1ccc([C@@]2(Cn3nc[nH]c3=S)O[C@@H]2c2ccccc2C(F)(F)F)cc1F (relative stereo) [Example 5, 1-[rel-(2S,3R)-2-(3,4-difluorophenyl)-3-(2-(trifluoromethyl)phenyl)oxiran-2-ylmethyl]-1H-1,2,4-triazole-5(4H)-thione]",Infection in % at 300 ppm for Puccrt P1,"Puccinia recondita; 300 ppm, protective spray 1 day before inoculation, wheat, untreated 90%",10%
"N#CSc1ncnn1C[C@]1(c2ccc(F)cc2F)O[C@@H]1c1ccccc1Cl (relative stereo) [Example 12, 1-[rel-(2S,3R)-3-(2-chlorophenyl)-2-(2,4-difluorophenyl)oxiran-2-ylmethyl]-5-thiocyanato-1H-1,2,4-triazole]",Growth in % at 31 ppm for Alteso,Alternaria solani,43%
same,Growth in % at 31 ppm for Septtr,Septoria tritici; [1],1%
"S-{2-[3-(2-chlorophenyl)-2-(2,4-difluorophenyl)oxiranylmethyl]-2H-[1,2,4]triazole-3-yl}rel-(2S,3R)thio carbonate [Example 15]",Growth in % at 31 ppm for Pyrior,Pyricularia oryzae,64%
"COC(=O)Sc1ncnn1CC1(c2ccc(F)cc2F)OC1c1ccccc1Cl (centres unmarked) [WO9742178, p. 55 (4th compound)]",Growth in % at 31 ppm for Pyrior,Pyricularia oryzae; [2],94%
